Experimental data published in US6649814B2, “Cytochrome P450 monooxygenases” (Syngenta Participations AG, priority 1997, dated 2003).

Key:
cytochrome P450OX [1] = target: T1, cytochrome P450OX (Sorghum bicolor, UniProt O48958); experiment: reconstitution of cytochrome P450OX activity in lipid micelles; type: biochemical; set-up: 10 μl of the cytochrome P450OX (approximately 0.4 pmol) solution; from tissue; host or cells: microsomes of etiolated Sorghum bicolor seedlings
T1 sequence (O48958 2-531): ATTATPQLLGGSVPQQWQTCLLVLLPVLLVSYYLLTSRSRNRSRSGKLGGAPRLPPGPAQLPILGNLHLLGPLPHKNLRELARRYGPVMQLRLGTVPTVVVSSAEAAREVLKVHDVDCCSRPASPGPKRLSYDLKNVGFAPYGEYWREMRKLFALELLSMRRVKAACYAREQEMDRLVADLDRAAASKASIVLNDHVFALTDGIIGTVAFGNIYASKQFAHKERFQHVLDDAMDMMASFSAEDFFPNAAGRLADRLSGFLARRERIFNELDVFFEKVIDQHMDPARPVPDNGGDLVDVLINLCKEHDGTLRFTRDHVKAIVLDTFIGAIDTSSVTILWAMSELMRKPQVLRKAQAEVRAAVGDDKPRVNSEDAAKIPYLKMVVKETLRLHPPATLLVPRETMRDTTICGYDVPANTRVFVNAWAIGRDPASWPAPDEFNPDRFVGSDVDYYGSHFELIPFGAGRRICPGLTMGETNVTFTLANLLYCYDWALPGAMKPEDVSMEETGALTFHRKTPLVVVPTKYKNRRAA
Text: (§1) Reconstitution of the enzyme activity of a microsomal cytochrome P450 is accomplished by inserting the cytochrome P450 enzyme and the corresponding NADPH cytochrome P450 oxidoreductase into lipid micelles. A mixture of lipids can be used but in the case of cytochrome P450OX, dilauroylphosphatidylcholine (DLPC) provides the best enzymatic activity. The number of correctly formed complexes of cytochrome P450OX and NADPH cytochrome P450 oxidoreductase are a rate limiting factor. Excess amounts of the oxidoreductase and concentrated enzyme solutions are utilized to ensure a sufficient number of active complexes.
(§2) A functionally reconstituted enzyme is obtained using the following components: […]
(§3) The complete reaction mixtures contain: 3 μl of isolated, recombinant P450TYR (6 pmol, heterologously expressed in E. coli and isolated as in Halkier et al, Arch. Biochem. Biophys. 322: 369-377, 1995), 10 μl of isolated and dialyzed P450OX (approximately 0.4 pmol), 5 μl of NADPH-P450 oxidoreductase (0.075 U), 1 μl of partially purified UDPG glucosyl transferase from Sorghum, 5 μl of DLPC (10 mg/ml in 50 mM Kpi (pH7)), 0.25 μl of [U-^14C]-tyrosine ([…], 443 mCi/mmol, Amersham), 3 μl of UDPG (33 mg/ml in 50 mM Kpi (pH7)), and 3 μl of castanospermin (2 mM in 50 mM Kpi (pH7)). […] The first set of reaction mixtures is analyzed using the ethyl acetate/toluene solvent as in example 4.5. […]

[2] = tested on: glucosidase activity present in the UDPG glucosyltransferase extract; experiment: inhibition of glucosidase activity in the in vitro dhurrin reconstitution; type: biochemical, Sorghum; conditions: 3 μl of 2 mM in 30 μl reaction mixture
Method: as §3, with “4.5. The second set of reaction mixtures is analyzed using a solvent system consisting of ethyl acetate/acetone/dichloromethane/methanol/water (20/15/6/5/4, v/v/v/v/v) in order to achieve separation of the hydrophilic product dhurrin from tyrosine and from the hydrophobic intermediates.” for “4.5.”
The combined use of isolated P450TYR and P450OX in reconstitution experiments with radiolabeled tyrosine as substrate results in the production of p-hydroxyphenylacetonitrile and p-hydroxybenzaldehyde. […] Due to the lability of p-hydroxymandelonitrile its conversion to dhurrin is experimentally detected as a disappearance of p-hydroxybenzaldehyde. […]

P450OX = target: T2, P450OX (Sorghum bicolor, UniProt O48958); experiment: substrate binding spectra of isolated P450OX; conditions: for substrate binding spectrum: upon substrate addition
T2 construct: from tissue; host or cells: microsomes of etiolated Sorghum bicolor seedlings
T2 sequence (O48958 1-531): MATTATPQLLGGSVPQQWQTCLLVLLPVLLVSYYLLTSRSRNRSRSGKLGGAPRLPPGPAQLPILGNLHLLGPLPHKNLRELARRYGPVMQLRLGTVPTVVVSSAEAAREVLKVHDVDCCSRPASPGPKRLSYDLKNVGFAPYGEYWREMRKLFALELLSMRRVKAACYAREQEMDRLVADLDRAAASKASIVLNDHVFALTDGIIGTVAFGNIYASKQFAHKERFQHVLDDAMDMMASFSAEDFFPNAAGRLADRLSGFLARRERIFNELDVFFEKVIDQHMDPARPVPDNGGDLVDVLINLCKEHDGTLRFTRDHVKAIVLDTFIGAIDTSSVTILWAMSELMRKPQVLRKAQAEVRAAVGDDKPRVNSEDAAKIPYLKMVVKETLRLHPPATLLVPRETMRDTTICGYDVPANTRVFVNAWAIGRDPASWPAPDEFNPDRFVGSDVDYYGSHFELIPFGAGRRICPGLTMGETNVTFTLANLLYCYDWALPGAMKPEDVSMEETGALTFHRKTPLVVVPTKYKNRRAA
Method: The identification of P450OX as a multifunctional enzyme converting p-hydroxyphenylacetaldoxime to p-hydroxymandelonitrile with p-hydroxyphenylacetonitrile as an intermediate stimulated us to investigate the substrate binding ability of P450OX. […] The amplitude increased in size upon incubation and reached a stable maximum after approximately 45 min.
The isolated P450OX produces a reverse Type I substrate binding spectrum upon incubation with p-hydroxyphenylacetaldoxime. The extinction coefficient E420-390 corresponding to a complete transition from one spin state to the other is 130 mM^−1 cm^−1. In the substrate binding spectra obtained, the maximal amplitudes are approximately twice as large as theoretically calculated even when assuming a complete shift from a high spin to a low spin state. […] Alternatively, the P420 form of P450OX is able to bind the oxime and thus contributes to the size of the substrate binding spectrum formed. The latter possibility could explain why maximal amplitudes are only obtained after prolonged incubation.

microsomal system = conditions: the substance is the substrate, cited from earlier work; for Km: read-out: Km for p-hydroxymandelonitrile production
cytochrome P450OX [3] = target: T1, cytochrome P450OX; experiment: reconstitution of cytochrome P450OX activity in lipid micelles; type: biochemical; set-up: from tissue; host or cells: microsomes of etiolated Sorghum bicolor seedlings; conditions: 10 mM, in place of NADPH
Text: as §1, §2, §3

P450TYR (CYP79) = target: T3, P450TYR (CYP79) (Sorghum bicolor, UniProt Q43135); conditions: upon in vitro reconstitution; cited from earlier work
T3 sequence (Q43135 1-558): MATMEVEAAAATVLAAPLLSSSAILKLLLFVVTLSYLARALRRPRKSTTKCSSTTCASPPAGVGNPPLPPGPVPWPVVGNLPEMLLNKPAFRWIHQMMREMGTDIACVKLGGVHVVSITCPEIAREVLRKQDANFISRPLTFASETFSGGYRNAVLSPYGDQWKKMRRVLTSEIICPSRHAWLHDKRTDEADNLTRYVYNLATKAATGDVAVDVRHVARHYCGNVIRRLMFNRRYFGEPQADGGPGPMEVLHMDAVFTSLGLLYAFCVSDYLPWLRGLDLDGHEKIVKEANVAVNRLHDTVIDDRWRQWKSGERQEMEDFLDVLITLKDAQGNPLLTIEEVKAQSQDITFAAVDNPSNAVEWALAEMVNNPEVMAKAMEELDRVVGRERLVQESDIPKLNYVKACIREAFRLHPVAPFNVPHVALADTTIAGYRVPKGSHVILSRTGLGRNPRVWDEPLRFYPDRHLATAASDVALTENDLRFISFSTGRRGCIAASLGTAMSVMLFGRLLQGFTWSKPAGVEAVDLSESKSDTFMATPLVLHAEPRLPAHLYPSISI

## ON=CCc1ccccc1 [phenylacetaldoxime]
Cytochrome P450OX [1]
  metabolism of the oxime as substrate of P450OX: can metabolize

## O[C@H]1[C@H](O)[C@@H](O)CN2CC[C@H](O)[C@H]12 [castanospermine]
[2]
  inhibition of glucosidase activity: efficiently inhibited

## ON=CCc1ccc(O)cc1 [p-hydroxyphenylacetaldoxime]
P450OX
  incubation time until the amplitude of the binding spectrum reached a stable maximum: approximately 45 min
  substrate binding spectrum: reverse type I spectrum
Microsomal system
  Km: 50 µM
  Vmax for p-hydroxymandelonitrile production: 400 nmoles mg protein^−1 h^−1
Cytochrome P450OX [1]
  metabolism of the oxime as substrate of P450OX: fully metabolized

## N[C@@H](Cc1ccc(O)cc1)C(=O)O [tyrosine]
Microsomal system
  Km: 30 µM
  Vmax for p-hydroxymandelonitrile production: 145 nmoles mg protein^−1 h^−1

## N#CCc1ccc(O)cc1 [p-hydroxyphenylacetonitrile]
P450OX
  substrate binding spectrum: No substrate binding spectrum was obtained
Microsomal system
  Km: 100 µM
  Vmax for p-hydroxymandelonitrile production: 50 nmoles mg protein^−1 h^−1

## O=S([O-])S(=O)[O-].[Na+].[Na+] [Sodium dithionite, reference compound]
Cytochrome P450OX [3]
  support of metabolism of p-hydroxyphenylacetaldoxime by P450OX: does not support metabolism

B1: P450TYR: cytochrome P450 of Sorghum bicolor that converts tyrosine to p-hydroxyphenylacetaldehyd oxime (protein, UniProt Q43135 2-558, looked up)
Tyrosine N-monooxygenase: ATMEVEAAAATVLAAPLLSSSAILKLLLFVVTLSYLARALRRPRKSTTKCSSTTCASPPAGVGNPPLPPGPVPWPVVGNLPEMLLNKPAFRWIHQMMREMGTDIACVKLGGVHVVSITCPEIAREVLRKQDANFISRPLTFASETFSGGYRNAVLSPYGDQWKKMRRVLTSEIICPSRHAWLHDKRTDEADNLTRYVYNLATKAATGDVAVDVRHVARHYCGNVIRRLMFNRRYFGEPQADGGPGPMEVLHMDAVFTSLGLLYAFCVSDYLPWLRGLDLDGHEKIVKEANVAVNRLHDTVIDDRWRQWKSGERQEMEDFLDVLITLKDAQGNPLLTIEEVKAQSQDITFAAVDNPSNAVEWALAEMVNNPEVMAKAMEELDRVVGRERLVQESDIPKLNYVKACIREAFRLHPVAPFNVPHVALADTTIAGYRVPKGSHVILSRTGLGRNPRVWDEPLRFYPDRHLATAASDVALTENDLRFISFSTGRRGCIAASLGTAMSVMLFGRLLQGFTWSKPAGVEAVDLSESKSDTFMATPLVLHAEPRLPAHLYPSISI
P450TYR (CYP79)
  turn-over number: 230 min⁻¹
